From patent publication US12648918B2, “Use of parabulin for targeting protozoan tubulin for the inhibition of protozoan replication” (Paul Scherrer Institut, priority 2020, dated 2026)

Legend:
human fibroblast cells = assay: toxicity assay on cultured human fibroblast cells; assay type: cell-based; conditions: sub-confluent (proliferating) fibroblasts, 72 hours, 25 μM
Protocol: To assess the potential of parabulin as a bona fide anti-parasitic agent, its effects were evaluated on cultures of human cells and growth of the apicomplexan parasite Toxoplasma gondii within human cells. […] CA4 has well-defined anti-mitotic activity due to its disruption of vertebrate MTs.
FIG. 4(A) depicts a toxicity assay showing the effect of parabulin and CA4 on cultured human fibroblast cells.

[1] = molecular target: T1, T. thermophila MTs (Tt-MT) (Tetrahymena thermophila, UniProt P41351+P41352); assay: TIRF microscopy MT dynamics reconstitution assay; assay type: biochemical
T1 construct: it was decided to isolate tubulin dimers from a protozoa organism; from tissue; host or cells: Tetrahymena thermophila cells (native tubulin isolated from the ciliate)
T1 sequence (P41352 whole entry): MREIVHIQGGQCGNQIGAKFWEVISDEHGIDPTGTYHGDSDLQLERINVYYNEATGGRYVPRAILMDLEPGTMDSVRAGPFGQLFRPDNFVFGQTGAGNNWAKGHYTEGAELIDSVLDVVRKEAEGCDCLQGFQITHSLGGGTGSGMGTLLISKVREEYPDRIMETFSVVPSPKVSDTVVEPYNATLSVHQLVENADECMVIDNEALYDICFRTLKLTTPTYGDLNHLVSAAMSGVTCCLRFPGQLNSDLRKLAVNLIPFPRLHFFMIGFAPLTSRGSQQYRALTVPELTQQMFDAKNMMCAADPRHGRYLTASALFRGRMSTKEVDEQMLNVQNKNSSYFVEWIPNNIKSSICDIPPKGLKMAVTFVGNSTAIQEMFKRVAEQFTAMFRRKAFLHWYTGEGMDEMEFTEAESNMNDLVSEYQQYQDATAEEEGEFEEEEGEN
T1 sequence (P41351 whole entry): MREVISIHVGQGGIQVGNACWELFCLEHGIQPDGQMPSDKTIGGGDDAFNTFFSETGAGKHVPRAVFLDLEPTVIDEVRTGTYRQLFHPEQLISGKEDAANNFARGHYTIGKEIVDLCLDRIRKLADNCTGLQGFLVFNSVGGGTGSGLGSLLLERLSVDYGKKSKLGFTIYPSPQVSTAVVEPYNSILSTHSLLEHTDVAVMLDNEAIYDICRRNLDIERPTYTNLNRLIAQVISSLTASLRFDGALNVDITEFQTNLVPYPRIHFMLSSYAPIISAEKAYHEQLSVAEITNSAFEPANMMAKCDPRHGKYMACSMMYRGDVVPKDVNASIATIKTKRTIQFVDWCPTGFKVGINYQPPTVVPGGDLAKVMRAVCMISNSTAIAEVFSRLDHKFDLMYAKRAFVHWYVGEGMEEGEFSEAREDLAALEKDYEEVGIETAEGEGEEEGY
Excerpt: FIG. 1(D) is a plot of Tt-MT plus-end growth rates as a function of tubulin concentration. Error bars represent the mean +/−95% CI. […] Left: outside view. The α- and β-tubulin monomers are shown in ribbon representation and colored in dark and light gray, respectively. […] Right: tubulin dimer models fitted into a sliced, transparent and zoomed-in view. The paclitaxel structure in stick representation is highlighted in magenta. Lateral contacts between protofilaments are indicated in blue (H2-S3 in α2 and β2), red (H1-S2 in α2 and β2) and green (M loop in α1 and β1).
(§1) To test if parabulin is able to bind to tubulin, its activity was assessed in vitro on dynamic MTs using our TIRF microscopy reconstitution assay. In contrast to the dynamic periods of growth and shrinkage observed for T. thermophila MTs (FIG. 1C), the addition of parabulin led to a striking reduction in the numbers of growth events (FIG. 3A).
FIG. 3(A) is a plot showing the quantification of the Tt-MT growth events in TIRF microscopy MT dynamics reconstitution assays in the presence of the indicated drugs. Error bars represent the mean +/−95% CI. […] Error bars represent the mean +/−95% CI. […] FIG. 3(C) represents the Tt-MT length in the presence of the indicated drugs (40 μM). Error bars represent the mean +/−95% CI.
The average number of growth events per 10-minute movie decreased from 41.3 to 3.8 even though the number of MT seeds immobilized on the cover slide was similar.

Toxoplasma gondii [2] = assay: T. gondii tachyzoite replication; assay type: cell-based; conditions: 36 h after addition; controls above 96% eight cell-stage
Protocol: (§2) In order to assess the efficacy of parabulin, T. gondii tachyzoite replication was followed 36 h after addition of parabulin. […] A T. gondii plaque assay was used to determine the concentration at which parasite replication is reduced by half (EC50 value). When confluent fibroblast monolayers were infected with wild-type tachyzoites and left to grow for seven days, lytic parasite growth created visible holes in the vertebrate fibroblast monolayer. Both the plaque numbers and sizes were reduced by parabulin treatment.

T. thermophila = assay: turbidity based T. thermophila cell growth inhibition assay; set-up: species or system Tetrahymena thermophila; conditions: parabulin 50 μM (FIG. 2D)
Excerpt: Zoom outs showing differences in the Taxane-, Pironetin—and Colchicine-sites between T. thermophila (light grey) and H. sapiens (wheat) tubulin. The three distinct zones of the Colchicine site are highlighted by colored transparent ovals. Amino acid residue differences between human and protozoa tubulin are indicated. […] FIG. 2(C) represents the chemical structures of CA4 and parabulin. The two CA4 rings, denoted A and B, are highlighted as well as the linker (yellow). FIG. 2(D) is a plot showing the time course of T. thermophila cell growth in the presence of CA4 (20 μM) or parabulin (50 μM; error bars corresponding to the standard deviation of triplicate measurements).
To assess the activity of any putative anti parasitic compound, a turbidity based T. thermophila cell growth inhibition assay was put in place in parallel to the efforts to solve T. thermophila MT and tubulin structures.
as §1

Toxoplasma gondii [3] = assay: T. gondii plaque assay; assay type: cell-based; conditions: seven days
Protocol: as §2

[4] = drugs 40 μM, one-way ANOVA vs DMSO

| Structure (SMILES) | cell survival (human fibroblast cells) [%] | average number of growth events per 10-minute movie ([1]; Tt-MT, control (DMSO) 41.3, similar number of MT seeds) | Tt-MT growth length vs control [1, 4] | Tt-MT growth rate vs control [1, 4] | eight cell-stage parasites (replication) (Toxoplasma gondii [2]) | T. thermophila cell growth (T. thermophila) | EC50 (Toxoplasma gondii [3]; Toxoplasma gondii, 168 h, confluent fibroblast monolayers, wild-type tachyzoites, read-out: EC50 (plaque area relative to control)) [µM] | plaque numbers and sizes (Toxoplasma gondii [3]) |
| --- | --- | --- | --- | --- | --- | --- | --- | --- |
| COc1ccc(/C=C\c2cc(OC)c(OC)c(OC)c2)cc1O [CA4, Combretastatin A4, reference compound] | 46 | – | – | – | – | – | – | – |
| COc1ccc(C=CC(=O)NCc2cc(OC)c(OC)c(OC)c2)cc1OC [parabulin, 3-(3,4-dimethoxyphenyl)-N-[(3,4,5-trimethoxyphenyl)methyl]prop-2-enamide] | 99 | 3.8 | no significant differences | no significant differences | no eight cell-stage observed | inhibited T. thermophila cell growth | 6.5 | reduced |
